Laboratory results from ChEMBL document CHEMBL3885881, “DrugMatrix”.

Organism: Rattus norvegicus
Assay: DrugMatrix - Regimen: Daily Repeat
Format: toxicity, organism-based, Sprague-Dawley
Parameters: regimen Daily Repeat, gender Male, age 6-8 weeks
Conditions: in vivo, po, route oral GAVAGE, […]; for ABSOLUTE BASOPHIL / ABSOLUTE EOSINOPHIL / ABSOLUTE LYMPHOCYTE / ABSOLUTE MONOCYTE / ABSOLUTE SEGMENTED NEUTROPHIL / BASOPHIL / EOSINOPHIL / ERYTHROCYTE COUNT / HEMATOCRIT / HEMOGLOBIN / LEUKOCYTE COUNT / LYMPHOCYTE / MEAN CORPUSCULAR HEMOGLOBIN / MEAN CORPUSCULAR HEMOGLOBIN CONCENTRATION / MEAN CORPUSCULAR VOLUME / MONOCYTE / NEUTROPHIL / NUCLEATED RED BLOOD CELLS / PLATELET COUNT: tissue Blood; for ALANINE AMINOTRANSFERASE / ALBUMIN / ALKALINE PHOSPHATASE / ASPARTATE AMINOTRANSFERASE / BLOOD UREA NITROGEN / CARBON DIOXIDE / CHLORIDE / CHOLESTEROL / CREATINE PHOSPHOKINASE / CREATININE / GLUCOSE / LACTATE DEHYDROGENASE / LIPASE / PHOSPHORUS / POTASSIUM / SODIUM / TOTAL BILIRUBIN / TOTAL PROTEIN / URIC ACID: tissue Plasma
[1] = 0.05 mg/kg, 120 h, dose level Low, time 5 day
[2] = 7 mg/kg, 72 h, dose level High, time 3 day
[3] = 7 mg/kg, 120 h, dose level High, time 5 day

COCc1c(C(C)C)nc(C(C)C)c(/C=C/[C@@H](O)C[C@@H](O)CC(=O)O)c1-c1ccc(F)cc1 [CERIVASTATIN]
ABSOLUTE BASOPHIL [1]: 0 CELLS/uL | ABSOLUTE EOSINOPHIL [1]: 39 CELLS/uL | ABSOLUTE LYMPHOCYTE [1]: 10187.67 CELLS/uL | ABSOLUTE MONOCYTE [1]: 164.67 CELLS/uL | ABSOLUTE SEGMENTED NEUTROPHIL [1]: 875.33 CELLS/uL | BASOPHIL [1]: 0% | EOSINOPHIL [1]: 0.33% | ERYTHROCYTE COUNT [1]: 5.9 x10E6/uL | HEMATOCRIT [1]: 36.4% | HEMOGLOBIN [1]: 13.87 G/DL | LEUKOCYTE COUNT [1]: 11.27 x10E3/uL | LYMPHOCYTE [1]: 90.33% | MEAN CORPUSCULAR HEMOGLOBIN [1]: 23.53 pg | MEAN CORPUSCULAR HEMOGLOBIN CONCENTRATION [1]: 38.1 G/DL | MEAN CORPUSCULAR VOLUME [1]: 61.73 fL | MONOCYTE [1]: 1.33% | NEUTROPHIL [1]: 8% | NUCLEATED RED BLOOD CELLS [1]: 0 /100WBC | PLATELET COUNT [1]: 1545 x10E3/uL | ALANINE AMINOTRANSFERASE [1]: 66.33 u/L | ALBUMIN [1]: 4.1 G/DL | ALKALINE PHOSPHATASE [1]: 440.67 u/L | ASPARTATE AMINOTRANSFERASE [1]: 90 u/L | BLOOD UREA NITROGEN [1]: 14.67 mg/dL | CARBON DIOXIDE [1]: 32 mmol/L | CHLORIDE [1]: 101 MEQ/L | CHOLESTEROL [1]: 63.67 mg/dL | CREATINE PHOSPHOKINASE [1]: 453 u/L | CREATININE [1]: 0.19 mg/dL | GLUCOSE [1]: 143.33 mg/dL | LACTATE DEHYDROGENASE [1]: 112.33 u/L | LIPASE [1]: 11.33 u/L | PHOSPHORUS [1]: 10.8 mg/dL | POTASSIUM [1]: 6.11 MEQ/L | SODIUM [1]: 144.4 MEQ/L | TOTAL BILIRUBIN [1]: 0.17 mg/dL | TOTAL PROTEIN [1]: 5.87 G/DL | URIC ACID [1]: 1.37 mg/dL | ABSOLUTE BASOPHIL [2]: 0 CELLS/uL | ABSOLUTE EOSINOPHIL [2]: 0 CELLS/uL | ABSOLUTE LYMPHOCYTE [2]: 7320 CELLS/uL | ABSOLUTE MONOCYTE [2]: 110 CELLS/uL | ABSOLUTE SEGMENTED NEUTROPHIL [2]: 1470 CELLS/uL | BASOPHIL [2]: 0% | EOSINOPHIL [2]: 0% | ERYTHROCYTE COUNT [2]: 6.07 x10E6/uL | HEMATOCRIT [2]: 37.7% | HEMOGLOBIN [2]: 14.3 G/DL | LEUKOCYTE COUNT [2]: 8.9 x10E3/uL | LYMPHOCYTE [2]: 81.67% | MEAN CORPUSCULAR HEMOGLOBIN [2]: 23.6 pg | MEAN CORPUSCULAR HEMOGLOBIN CONCENTRATION [2]: 37.93 G/DL | MEAN CORPUSCULAR VOLUME [2]: 62.2 fL | MONOCYTE [2]: 1.33% | NEUTROPHIL [2]: 17% | NUCLEATED RED BLOOD CELLS [2]: 0 /100WBC | PLATELET COUNT [2]: 1276.33 x10E3/uL | ALANINE AMINOTRANSFERASE [2]: 401.33 u/L | ALBUMIN [2]: 4.23 G/DL | ALKALINE PHOSPHATASE [2]: 440.67 u/L | ASPARTATE AMINOTRANSFERASE [2]: 730.67 u/L | BLOOD UREA NITROGEN [2]: 14.33 mg/dL | CARBON DIOXIDE [2]: 34.67 mmol/L | CHLORIDE [2]: 99.33 MEQ/L | CHOLESTEROL [2]: 65.33 mg/dL | CREATINE PHOSPHOKINASE [2]: 536.67 u/L | CREATININE [2]: 0.21 mg/dL | GLUCOSE [2]: 138.33 mg/dL | LACTATE DEHYDROGENASE [2]: 823 u/L | LIPASE [2]: 11.33 u/L | PHOSPHORUS [2]: 10.17 mg/dL | POTASSIUM [2]: 6.19 MEQ/L | SODIUM [2]: 145.1 MEQ/L | TOTAL BILIRUBIN [2]: 0.13 mg/dL | TOTAL PROTEIN [2]: 5.9 G/DL | URIC ACID [2]: 1.17 mg/dL | ABSOLUTE BASOPHIL [3]: 0 CELLS/uL | ABSOLUTE EOSINOPHIL [3]: 0 CELLS/uL | ABSOLUTE LYMPHOCYTE [3]: 5700.67 CELLS/uL | ABSOLUTE MONOCYTE [3]: 483.33 CELLS/uL | ABSOLUTE SEGMENTED NEUTROPHIL [3]: 1949.33 CELLS/uL | BASOPHIL [3]: 0% | EOSINOPHIL [3]: 0% | ERYTHROCYTE COUNT [3]: 6.32 x10E6/uL | HEMATOCRIT [3]: 41% | HEMOGLOBIN [3]: 15.23 G/DL | LEUKOCYTE COUNT [3]: 8.13 x10E3/uL | LYMPHOCYTE [3]: 68.33% | MEAN CORPUSCULAR HEMOGLOBIN [3]: 24.1 pg | MEAN CORPUSCULAR HEMOGLOBIN CONCENTRATION [3]: 37.17 G/DL | MEAN CORPUSCULAR VOLUME [3]: 64.93 fL | MONOCYTE [3]: 5.67% | NEUTROPHIL [3]: 26% | NUCLEATED RED BLOOD CELLS [3]: 0 /100WBC | PLATELET COUNT [3]: 1312.67 x10E3/uL | ALANINE AMINOTRANSFERASE [3]: 247.33 u/L | ALBUMIN [3]: 3.9 G/DL | ALKALINE PHOSPHATASE [3]: 548.33 u/L | ASPARTATE AMINOTRANSFERASE [3]: 624.67 u/L | BLOOD UREA NITROGEN [3]: 19 mg/dL | CARBON DIOXIDE [3]: 35.67 mmol/L | CHLORIDE [3]: 93 MEQ/L | CHOLESTEROL [3]: 85 mg/dL | CREATINE PHOSPHOKINASE [3]: 915.67 u/L | CREATININE [3]: 0.27 mg/dL | GLUCOSE [3]: 124.33 mg/dL | LACTATE DEHYDROGENASE [3]: 295 u/L | LIPASE [3]: 13 u/L | PHOSPHORUS [3]: 8 mg/dL | POTASSIUM [3]: 5.51 MEQ/L | SODIUM [3]: 142.73 MEQ/L | TOTAL BILIRUBIN [3]: 0.13 mg/dL | TOTAL PROTEIN [3]: 6.1 G/DL | URIC ACID [3]: 0.87 mg/dL
